“Also recorded” adds a separate entry of the source.
Assays:
[1] = target: T1, P2X7R (Mus musculus, UniProt Q9Z1M0); assay: Calcium influx into HT-22 cells (Oregon green AM ester); assay type: cell-based; details: 100 μM BzATP, 15 minutes
T1 construct: endogenous in cells; host or cells: HT-22 (immortalised mouse hippocampal cell line)
T1 sequence (Q9Z1M0 1-595): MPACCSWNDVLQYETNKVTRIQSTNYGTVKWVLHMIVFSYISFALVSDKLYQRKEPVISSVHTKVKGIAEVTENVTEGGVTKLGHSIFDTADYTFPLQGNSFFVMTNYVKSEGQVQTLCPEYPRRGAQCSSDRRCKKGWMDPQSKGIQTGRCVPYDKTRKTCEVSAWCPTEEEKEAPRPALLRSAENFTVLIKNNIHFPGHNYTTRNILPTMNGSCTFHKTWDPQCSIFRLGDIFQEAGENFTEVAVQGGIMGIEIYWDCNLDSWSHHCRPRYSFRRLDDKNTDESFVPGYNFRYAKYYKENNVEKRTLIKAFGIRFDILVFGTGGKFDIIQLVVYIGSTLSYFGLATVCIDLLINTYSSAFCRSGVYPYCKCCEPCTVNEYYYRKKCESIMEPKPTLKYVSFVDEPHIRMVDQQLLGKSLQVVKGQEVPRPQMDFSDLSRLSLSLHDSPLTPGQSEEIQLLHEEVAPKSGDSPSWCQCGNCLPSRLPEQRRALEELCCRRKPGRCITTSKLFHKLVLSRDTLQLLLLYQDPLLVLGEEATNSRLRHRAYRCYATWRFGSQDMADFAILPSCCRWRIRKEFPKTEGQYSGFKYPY
Description: Since P2X7R is an ATP-gated ion channel which allows the entry of calcium and sodium ions into cells, a method for identifying P2X7R agonist was established by monitoring calcium influx into HT-22 cells. […] Calcium movement into the cells was visualised under a fluorescent microscope with a fluorescein filter (wavelength 492/517 nm). Oregon green AM ester is a fluorescent dye that binds to intracellular calcium.
Activation of P2X7R by the agonist was inhibited by oATP (FIG. 18) as illustrated by the absence of green fluorescence in the cells.

[2] = system: DBA/201a mouse strain; assay: Porsolt's forced swim test after intrahippocampal BzATP; assay type: in vivo; details: 50 μM BzATP, 24 hours after injection
Description: In the present example, the P2X7R agonist was directly injected into the hippocampus of mice. However, a P2X7R agonist agent or compound could also be delivered orally, subcutaneously, intravenously, intra-arterial, intranodal, intramedullary, intrathecal, intraventricular, intranasally, intrabronchial, transdermally, intrarectally, intraperitoneally, intramuscularly, intrapulmonary, vaginally, rectally, or intraocularly.
Four months old male mice were bilaterally implanted with guide cannulae (23 gauge, length 8 mm) by means of a stereotactic instrument (David Kopf Instruments). The coordinates, in relation to bregma, were −2.0 mm posterior, ±1.0 mm lateral, and −1.0 mm ventral. After surgery, the mice were allowed to recover for 10 to 12 days. […] Injections were performed using a 9 mm-30 gauge needle inserted into the guide cannulae and connected via tubing to a 10 μl Hamilton syringe.
The forced swim test is a standard test that measures primary stress-induced reductions in avoidance or escape, termed behavioural despair. The test is used to determine the effectiveness of antidepressants, test new pharmaceutical compounds and validate animal models of depression (Porsolt et al., Arch. Int. Pharmacodym. 229 (1977), 327-336; Porsolt, Rev. Neurosci. 11 (2000), 53-58; Rénéric et al., Behav. Brain Res. 136 (2002), 521-532; Page et al., Psychopharmacology 165 (2003), 194-201; Kelliher et al., Psychoneuroendocrinology 28 (2003), 332-347). The test consists of placing a mouse for a period of 5 minutes into a glass cylinder containing water. Under such circumstances, the mouse cannot touch the bottom of the cylinder and is thus forced to swim. Time, latency and frequency of struggling versus floating are scored as behavioural parameters. […] Increased struggling (i.e. active attempts to escape) indicates active coping behaviour that can be interpreted as an improvement of depression-like symptoms. For example, treatment with serotonergic antidepressants reduce the total time spent floating (Borsini, Neurosci. Biobehav. Rev. 19 (1995), 377-395; Redrobe and Bourin, Psychopharmacology 138 (1998), 198-206, and in parallel increases the time of active behaviour (i.e. swimming or struggling; Lucki et al., Psychopharmacology 155 (2001), 315-322).

[3] = target: T2, P2X7R (Homo sapiens, UniProt Q99572); details: dose response curve, Y-axis ion current; cited from earlier work
T2 sequence (Q99572 1-595): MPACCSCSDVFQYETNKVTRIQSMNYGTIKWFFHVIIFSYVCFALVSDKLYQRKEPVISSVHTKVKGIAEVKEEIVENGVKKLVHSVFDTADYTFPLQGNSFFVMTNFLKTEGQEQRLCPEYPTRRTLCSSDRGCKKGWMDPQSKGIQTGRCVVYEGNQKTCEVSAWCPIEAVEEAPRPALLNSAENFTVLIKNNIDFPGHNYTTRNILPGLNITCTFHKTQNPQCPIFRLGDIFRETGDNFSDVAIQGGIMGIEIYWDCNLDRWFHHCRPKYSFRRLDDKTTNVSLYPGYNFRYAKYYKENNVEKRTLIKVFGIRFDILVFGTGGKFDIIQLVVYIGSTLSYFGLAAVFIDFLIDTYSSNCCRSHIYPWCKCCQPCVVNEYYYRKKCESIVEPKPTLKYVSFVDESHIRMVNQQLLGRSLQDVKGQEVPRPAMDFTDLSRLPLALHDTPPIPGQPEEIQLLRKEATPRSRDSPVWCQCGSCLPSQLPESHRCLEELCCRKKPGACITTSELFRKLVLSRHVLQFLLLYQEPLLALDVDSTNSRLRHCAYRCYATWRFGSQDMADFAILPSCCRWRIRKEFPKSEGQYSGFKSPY

[4] = system: mice; assay: Open field test (locomotor activity) after BzATP; assay type: in vivo, mouse; details: 50 μM BzATP, 24 hours after injection, 30 minutes
Description: Locomotor activity was monitored for a period of 30 minutes using a video camera. Overall distance travelled by the animals during the testing period was then analysed by means of VideoMot2 computer software (TSE GmbH, Bad Homburg).

[5] = 1 μl each side, not supported statistically
[6] = 1 μl each side, statistically significant

## 2′-3′-O-(4-Benzoylbenzoyl)adenosine 5′-triphosphate [BzATP]
[1]
  calcium influx (green fluorescence): Increase calcium influx; also recorded: increase in green fluorescence
[2]; 1 μl each side of hippocampus, statistically significant
  time of struggling: increase
[2]; [5]
  frequency of struggling: increase
  latency of struggling: decrease
  time of floating: decrease
[2]; [6]
  frequency of floating: decrease
  latency of floating: increase
[3]
  EC50: 8 µM
[4]
  locomotor activity (overall distance travelled): No difference in locomotor activity
